Laboratory results reported in the METLIN SMRT retention time set (Domingo-Almenara et al. 2019).

Assay: gradient 5% acetonitrile 3 min, to 50% in 2 min, to 85% in 15 min, held 3 min, 100 µL/min
Details: column: Zorbax Extend-C18 2.1 x 50 mm; eluents: water / acetonitrile, 0.1% formic acid
How it was run: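 The system's dead and dwell volumes were 40 μL and 900 μL, with a Zorbax Extend-C18 column (2.1 × 50 mm, 1.8 μm) run at 100 μL/min in water and acetonitrile containing 0.1% formic acid each. Pure standards were analyzed in mixtures of ~100 molecules by HPLC–quadrupole time-of-flight mass spectrometry in positive and negative ionization mode. Retention time was assigned from computationally picked, manually inspected adduct peaks.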

SMILES	RP-LC retention time
c1cnc(N2CCN(c3nc4ccccc4s3)CC2)nc1	809 s
COc1ncc(C(=O)NCc2ccc(Cl)cc2)cn1	751 s
O=C(Cn1cnc2c(nc3n2CCCCC3)c1=O)N1CCN(Cc2ccc3c(c2)OCO3)CC1	588 s
O=C(c1ccc(F)cc1)N1CCC(n2c(-c3ccco3)nc3cccnc32)C1 (centres undefined)	689 s
COc1cccc(-c2noc(-c3nn(-c4ccc(Cl)cc4)ccc3=O)n2)c1OC	896 s
CCOC(=O)CNC(=O)N1CCN(c2nc3ccccc3n2Cc2ccccc2)CC1	656 s
CCOC(=O)C1CCN(C(=O)Cn2c(N3CCOCC3)nc(C)cc2=O)CC1	620 s
CCCn1ccc2sc(C)c(C(=O)N(CC)Cc3ccccc3)c2c1=O	884 s
Cn1nc(-c2nc(C3CC3)no2)c2c1CCN(C(=O)c1cc(F)ccc1Cl)C2	842 s
COc1ccc(CNC(=O)C2CCCN(c3nnc4ccc(C(F)(F)F)cn34)C2)cc1 (centres undefined)	783 s
O=C(CCc1nc(C2=CCN(Cc3ccc(Cl)cc3)CC2)no1)NC1CC1	890 s
CC(C)NC(=O)CCc1c(-c2ccccc2)nc2ccccn12	595 s
Cc1nn(-c2ccccc2)c(C)c1S(=O)(=O)N1CCC(C(=O)N2CCCc3ccccc32)CC1	1040 s
Cc1ncc2c(n1)CCCN(CC(=O)N1CCCC1)C2=O	579 s
CC(C)n1c(N2CCCN(C(=O)c3ccnn3C)CC2)cc(=O)n(C(C)C)c1=O	707 s
Cc1nn(C)cc1C(C)NC(=O)C1CCN(c2cnn(Cc3ccccc3)c(=O)c2)CC1 (centres undefined)	652 s
O=C1CCN(Cc2ccc(F)cc2F)CCOCCN1	561 s
O=C(c1ccc(F)cc1)N1CCC2(CC1)OCC(C(=O)N1CCCC1)N2C(=O)c1cccc(F)c1 (centres undefined)	715 s
CN(C)C(=O)Cn1c(=O)c2cccn2c2ccc(F)cc21	690 s
Cc1ccc(S(=O)(=O)N2C(=O)CCC2C(=O)Nc2cccc(C)c2C)cc1C (centres undefined)	976 s
O=C(Cc1cccs1)NCc1nnnn1-c1ccc(F)c(F)c1	711 s
Cc1cccc(N(C)C(=O)Cn2cnc3nc4c(cc3c2=O)CCCC4)c1	705 s
CO[C@H]1C(=O)N(C2CCN(S(=O)(=O)c3cccnc3)CC2)[C@H]1c1ccncc1	579 s

SMILES	RP-LC retention time
O=C(NCc1ccncc1)c1csc(-c2ccc(N3CCCC3)nc2)n1	559 s
CCc1ccc(NS(=O)(=O)c2cc(-c3nc(C)cs3)cs2)cc1	1030 s
O=[N+]([O-])c1ccc2[nH]c3nc4ccccc4nc3c2c1	876 s
O=C(NC1CCN(c2cc(-c3ccc(Cl)cc3)[nH]n2)C1)c1ccccc1F (centres undefined)	777 s
O=C1NCCCn2nc(C3CCN(S(=O)(=O)c4ccc5c(c4)CCC5)CC3)cc21	800 s
Cc1ccc(CN2CCC(CNC(=O)c3c(C)oc4nc(C)nc(N5CCOCC5)c34)CC2)cc1	629 s
CSc1ccc(-c2nc3ccc(C)cn3c2Nc2ccc3c(c2)OCCO3)cc1	716 s
Cc1nn2c(CNS(=O)(=O)c3ccc4c(c3)CCC4)c(-c3ccccc3)nc2s1	936 s
CCc1cccc(C)c1Nc1c(-c2ccc(F)cc2)nc2cnccn12	1010 s
CCCN(CC1CCOC1)S(=O)(=O)c1cccc(F)c1 (centres undefined)	850 s
COCc1nc2cccnc2n1C1CCN(C(=O)Nc2cccc(Br)c2)CC1	768 s
O=C(CSc1ccc(F)cc1)NCC(O)(c1ccccc1)C(F)(F)F (centres undefined)	887 s
COc1cc(NC(=O)N2CC(c3nc(C(C)C)nn3C)C2)cc(OC)c1	662 s
Cn1c(=O)c(N2CCC(NC(=O)Nc3ccc(Br)cc3)CC2)nc2ccccc21	977 s
COc1nccnc1N1CCC(NC(=O)c2ccsc2)C1 (centres undefined)	645 s
O=S(=O)(c1cccs1)N1CCc2nc(-c3ccc(F)cc3)ncc2C1	1030 s
Cc1cc(C(=O)N2CCC(c3cc(N)on3)CC2)no1	625 s
Cc1cnc(C2CCC2)n1CCNS(=O)(=O)c1ccccc1	615 s
COc1ccc2[nH]c3c(c2c1)CCN(C(=O)C1CC1)C3c1ccc(F)cc1 (centres undefined)	949 s
CCN(CC)c1ncc2c(n1)CCC(C(=O)Nc1cccc(C(=O)OC)c1)C2 (centres undefined)	660 s
Cc1noc([C@]23CN(CCc4ccccc4)CC[C@H]2CN(CCc2ccccc2)C3)n1	573 s
O=S(=O)(c1ccccc1F)N1CC(c2nc(Cc3ccccc3)no2)C1	976 s
CCn1ccc2sc(C)c(C(=O)NCc3cccc(OC)c3)c2c1=O	785 s

SMILES	RP-LC retention time
CCc1nc2ccc(CCC(=O)NCCCc3ccccc3)cc2[nH]1	614 s
CCS(=O)(=O)Nc1ccc(C2(C(=O)NCc3cccc(Cl)c3)CCC2)cc1	876 s
Cc1ccccc1-c1noc(CCn2nc(-c3ccccc3)ccc2=O)n1	1000 s
COc1ccc(OC)c(-c2csc(Nc3ccc(Br)cn3)n2)c1	1190 s
O=C(Cn1nc2c3cc(-c4ccc(Cl)cc4)nn3ccn2c1=O)N1CCCCC1	924 s
CCC(=O)N1CCc2cc(C(=O)NCc3ccc(C)o3)ccc21	757 s
CC(C)c1ccc(S(=O)(=O)c2cnc(N3CCC4(CC3)OCCO4)nc2N)cc1	1020 s
O=C(Cn1cccc(-c2nc(-c3ccccc3)no2)c1=O)Nc1ccc(Br)cc1F	951 s
O=C(c1ccoc1)N1CCCC(c2nnc3n2CCN(C2CCCC2)C3)C1 (centres undefined)	562 s
CCCNC(=O)C1CC(=O)N(CCc2c[nH]c3ccc(Cl)cc23)C1 (centres undefined)	708 s
Cc1nc(N)nc(Cl)c1CCC1OCCO1	673 s
CCCNC(=O)C1CCN(c2cc(SCC(=O)Nc3ccc(C(=O)OCC)cc3)ncn2)CC1	781 s
O=C1CCCN1CCCN(CC(=O)N1CCNCC1)C(=O)c1ccc(F)c(Cl)c1	581 s
O=C(Nc1cccc(OCc2nnc(-c3ccc(Cl)cc3)o2)c1)c1ccsc1	1010 s
COc1ccc(Cl)c2c(=O)c3c([nH]c12)CCN(CC(=O)Nc1ccccc1)C3	617 s
O=C(Cc1ccccc1Cl)Nc1nnc(-c2ccc(OC(F)(F)F)cc2)o1	896 s
Cc1cccc(CNC(=O)C2CCN(S(=O)(=O)c3cc(C(=O)N4CCCC4)n(C)c3)CC2)c1	747 s
Cc1csc(-c2ccc(N3CCN(C(=O)COc4ccc(F)cc4)CC3)nc2)n1	856 s
COc1ccc(NC(=O)c2cnc3c(c2)c(=O)n(C)c(=O)n3-c2ccccc2)cc1OC	771 s
CCn1c(CNC(=O)C2CCC2)nc2c1CN(S(=O)(=O)c1ccc(Cl)cc1)CC2	692 s
Cc1nc(C)c(-c2ccc(=O)n(CCNS(=O)(=O)c3ccc4c(c3)OCCO4)n2)s1	642 s
Cc1ccc(-c2nc(Cn3nnc(C(=O)NC4CCCC4)c3C)c(C)o2)cc1	1060 s
COc1ccc(CNC(=O)c2nnc(-c3ccc(S(=O)(=O)N(C)C)cc3)o2)cc1	845 s

SMILES	RP-LC retention time
O=C(Cc1csc2nc(-c3ccccc3)cn12)Nc1ccc2c(c1)OCCO2	744 s
O=C(c1ccoc1)N1CC(F)(F)C[C@H]1c1nnc(-c2ccncc2)o1	668 s
O=C(NCc1csc(-c2ccccc2)n1)C1CCN(S(=O)(=O)c2ccc(Cl)cc2)CC1	976 s
COc1ccc(NC(=O)N2c3ccccc3CC2c2nc(C3CC3)no2)c(C)c1 (centres undefined)	978 s
CCc1noc(C2(NC(=O)c3nccc4ccccc34)CCCCC2)n1	1060 s
Cc1ccc(/C=N/NC(=O)c2ccccc2Oc2ccccc2)o1	854 s
CCOC(=O)C1CCN(C(=O)C2CCCN(c3ncnc4c3nc3n4CCCCC3)C2)CC1 (centres undefined)	726 s
COc1ccc(N2C=C(C(=O)N3CCOCC3)S(=O)(=O)c3ccccc32)cc1Cl	789 s
Cc1ccc2c(c1)N(S(C)(=O)=O)CCC(C(=O)NCCC1=CCCCC1)O2 (centres undefined)	993 s
O=C(NC1CCc2ccccc21)C1CCN(c2ncnc3c2oc2ccccc23)CC1 (centres undefined)	778 s
COC(=O)c1ccc(NS(=O)(=O)c2cccc(S(C)(=O)=O)c2)cc1	706 s
CC(C)c1nc2c(NC(=O)c3ccc(Br)o3)cccn2n1	908 s
Cc1csc(-c2ccc(N3CCN(C(=O)c4ccc(F)cc4)CC3)nc2)n1	820 s
Cc1c(Cl)cccc1-n1ccnc(NC(=O)Nc2ccc3c(c2)OCO3)c1=O	995 s
Cn1cc(C(=O)NCCc2cccs2)c(S(=O)(=O)N2CCSCC2)n1	842 s
O=C(NCCc1ccncc1)C1CN(C(=O)c2ccncc2)CC12CCCCC2 (centres undefined)	551 s
Cc1cccc(-c2noc(-c3ccc(N4CCN(Cc5ccc6c(c5)OCO6)CC4)nc3)n2)c1	848 s
CCOc1ccc(-c2noc(CSc3nccn3-c3ccccc3)n2)cc1OC	856 s
Cc1ccccc1-c1noc(CSc2nc3cc4c(cc3c(=O)n2CC2CCCO2)OCO4)n1 (centres undefined)	1170 s
CC1=C(c2ccccc2)S(=O)(=O)N=C1N1CCCN(C(=O)NC2CCCCC2)CC1	817 s
